Experimental data from patent US20240100068A1, “METHODS COMPRISING ADMINISTRATION OF A GLUCOCORTICOID RECEPTOR AGONIST AND AN INHIBITOR OF CALCINEURIN” (Chengdu Anticancer Bioscience, Ltd., priority 2022, published 2024).
Read-outs that look alike come from different tables or passages of the source.

Key:
[1] = tested on: T2MycNick cells; experiment: Testing compounds for their ability of restoring contact inhibition (vacuolation, cell density); type: cell-based, murine; details: for minimal effective concentration: T2MycNick cells grown beyond confluence, 7-14 days; for cell density reduction (in words) / vacuolation (in words): compound alone; for vacuolation (in words): up to 10 μM
Protocol: Exponentially growing MycNick cells were passaged into 24-well plates at a final confluence of 90% and were allowed to attach for 48 hours before being exposed to a cortisol analog in the presence or absence of a calcineurin inhibitor. After the initiation of treatment, the cells were allowed to grow beyond confluence for 7 days before being subjected to morphological analysis and cell density. An inverted tissue culture microscope (Leica) was used to document vacuoles in live cells. Cell density was evaluated under an EVOS FL Auto microscope (Thermo Fisher) after fixation of the treated cells with 4% paraformaldehyde (PFA) in the presence of detergent 0.5% Triton X-100 and subsequently staining of DNA with 5 μg/ml of Propidium Iodide (PI) in the presence of 5 μg/ml of Ribonuclease A from bovine pancreas (RNase A) (Sigma, Cat. # R6513-50MG).
Exponentially growing murine cells expressing Myc-Nick (T2MycNick cells) were passaged into 24-well plates at a final confluence of 20% and were allowed to attach overnight before being exposed to a test compound at a concentration of 10 μM. […] The cells were subjected to daily analysis of viability and morphology under an inverted tissue culture microscope or GE InCell Analyzer 2000. Cell density was documented after staining of DNA with PI 7-10 days after the initiation of treatment.

[2] = tested on: MycNick cells; experiment: Combination treatment with Hydrocortisone: modulation of HC-induced vacuolation, cell density reduction and CIR effect; type: cell-based, murine; details: for sensitization to induction of vacuolation elicited by Hydrocortisone: 10 days, FIG. 16: Cyclosporin A […], Hydrocortisone 0.3 μM; for Cell density reduction by Hydrocortisone / Vacuolation by Hydrocortisone: Combination treatment with Hydrocortisone for 7 days; for HC-triggered vacuolation in presence of the compound: added to HC
Protocol: Exponentially growing MycNick cells were passaged into 24-well plates at a final confluence of 90% and were allowed to attach for 48 hours before being exposed to a cortisol analog in the presence or absence of a calcineurin inhibitor. […] An inverted tissue culture microscope (Leica) was used to document vacuoles in live cells. Cell density was evaluated under an EVOS FL Auto microscope (Thermo Fisher) after fixation of the treated cells with 4% paraformaldehyde (PFA) in the presence of detergent 0.5% Triton X-100 and subsequently staining of DNA with 5 μg/ml of Propidium Iodide (PI) in the presence of 5 μg/ml of Ribonuclease A from bovine pancreas (RNase A) (Sigma, Cat. # R6513-50MG).
The threshold concentration that was used to elicit no less than 50% of reduction in the cell density was determined. So was the minimal effective concentration that could induce vacuolation to an extent that covered no less than 10% of a random field documented under a bright field microscope. Quantification of the area with vacuolation, multilayer zones or multilayer zones was performed with the Image J software. More than 10 random fields were chosen for quantification for each data point in each of two independent experiments.
A chemical library for enhancers of the CIR effect of HC in MycNick cells was screened.

[3] = Mus musculus, PI staining, read-out: Conc that reduces > 50% in the cell density
[4] = Mus musculus, vacuolation covering no less than 10% of a random field, read-out: Min. effective conc. that elicits vacuolation
[5] = PI staining, read-out: Conc that reduces > 50% in the cell density
[6] = vacuolation covering no less than 10% of a random field, read-out: Min. effective conc. that elicits vacuolation

## CCC(=O)OCC(=O)[C@@]1(OC(=O)CC)[C@@H](C)C[C@H]2[C@@H]3CCC4=CC(=O)C=C[C@]4(C)[C@@]3(Cl)[C@@H](O)C[C@@]21C [CI019, Beclomethasone dipropionate]
[1]; [3]
  minimal effective concentration: 2.5 µM
[1]; [4]
  minimal effective concentration: 0.625 µM

## CC1(C)O[C@@H]2C[C@H]3[C@@H]4CCC5=CC(=O)C=C[C@]5(C)[C@H]4[C@@H](O)C[C@]3(C)[C@]2(C(=O)CO)O1 [CI020, Desonide]
[1]; [3]
  minimal effective concentration: 2.5 µM
[1]; [4]
  minimal effective concentration: 0.625 µM

## CC1(C)O[C@@H]2C[C@H]3[C@@H]4C[C@H](F)C5=CC(=O)C=C[C@]5(C)[C@@]4(F)[C@@H](O)C[C@]3(C)[C@]2(C(=O)CO)O1 [CI021, Fluocinolone Acetonide]
[1]; [3]
  minimal effective concentration: 2.5 µM
[1]; [4]
  minimal effective concentration: 0.625 µM

## CCC(=O)O[C@]1(C(=O)SCF)[C@H](C)C[C@H]2[C@@H]3C[C@H](F)C4=CC(=O)C=C[C@]4(C)[C@@]3(F)[C@@H](O)C[C@@]21C [CI022, Fluticasone propionate]
[1]; [3]
  minimal effective concentration: 2.5 µM
[1]; [4]
  minimal effective concentration: 0.625 µM

## C[C@@H]1C[C@H]2[C@@H]3CCC4=CC(=O)C=C[C@]4(C)[C@@]3(Cl)[C@@H](O)C[C@]2(C)[C@@]1(OC(=O)c1ccco1)C(=O)CCl [CI023, Mometasone Furoate]
[1]; [3]
  minimal effective concentration: 2.5 µM
[1]; [4]
  minimal effective concentration: 0.625 µM

## C[C@]12C[C@H](O)[C@H]3[C@@H](CCC4=CC(=O)CC[C@@]43C)[C@@H]1CC[C@@H]2C(=O)CO [CI028, Corticosterone]
[1]; [3]
  minimal effective concentration: 2.5 µM
[1]; [4]
  minimal effective concentration: 0.625 µM

## C#C[C@]1(OC(C)=O)CC[C@H]2[C@@H]3CCC4=C[C@@H](OC(C)=O)CC[C@@H]4[C@H]3CC[C@@]21C [CI030, Ethynodiol diacetate]
[1]; [3]
  minimal effective concentration: 5 µM
[1]; [4]
  minimal effective concentration: > 10 µM
[1]
  cell density reduction (in words): failed to elicit vacuolation or reduce cell density
  vacuolation (in words): failed to elicit vacuolation

## CC(=O)O[C@]1(C(C)=O)CC[C@H]2[C@@H]3C[C@H](C)C4=CC(=O)CC[C@]4(C)[C@H]3CC[C@@]21C [CI031, Medroxyprogesterone acetate]
[1]; [5]
  minimal effective concentration: 2.5 µM
[1]; [6]
  minimal effective concentration: 2.5 µM

## C#C[C@]1(O)CC[C@H]2[C@@H]3CCC4=CC(=O)CC[C@]4(C)[C@H]3CC[C@@]21C [CI032, Ethisterone]
[1]; [3]
  minimal effective concentration: 10 µM
[1]; [4]
  minimal effective concentration: > 10 µM
[1]
  cell density reduction (in words): failed to elicit vacuolation or reduce cell density
  vacuolation (in words): failed to elicit vacuolation

## C[C@]12CCC3=C4CCC(=O)C=C4CC[C@H]3[C@@H]1CC[C@@]2(O)CC#N [CI033, Dienogest]
[1]; [3]
  minimal effective concentration: 10 µM
[1]; [4]
  minimal effective concentration: > 10 µM
[1]
  cell density reduction (in words): failed to elicit vacuolation or reduce cell density
  vacuolation (in words): failed to elicit vacuolation

## CC[C@@H]1/C=C(\C)C[C@H](C)C[C@H](OC)[C@H]2O[C@@](O)(C(=O)C(=O)N3CCCC[C@H]3C(=O)O[C@H](/C(C)=C/[C@@H]3CC[C@@H](O)[C@H](OC)C3)[C@H](C)[C@@H](O)CC1=O)[C@H](C)C[C@@H]2OC [CI034, Ascomycin]
[2]
  sensitization to induction of vacuolation elicited by Hydrocortisone: sensitizes
  Cell density reduction by Hydrocortisone: Enhanced
  Vacuolation by Hydrocortisone: Enhanced
[1]
  vacuolation (in words): did not elicit vacuolation

## C[C@@H]1C[C@H]2[C@@H]3CCC4=CC(=O)C=C[C@]4(C)[C@@]3(F)[C@@H](O)C[C@]2(C)[C@@]1(O)C(=O)COP(=O)([O-])[O-].[Na+].[Na+] [CI039, Dexamethasone 21-phosphate disodium salt]
[1]; [5]
  minimal effective concentration: 2.5 µM
[1]; [6]
  minimal effective concentration: 0.625 µM

## CC[C@@H]1/C=C(\C)C[C@H](C)C[C@H](OC)[C@H]2O[C@@](O)(C(=O)C(=O)N3CCCC[C@H]3C(=O)O[C@H](/C(C)=C/[C@@H]3CC[C@H](Cl)[C@H](OC)C3)[C@H](C)[C@@H](O)CC1=O)[C@H](C)C[C@@H]2OC [CI040, Pimecrolimus]
[2]
  sensitization to induction of vacuolation elicited by Hydrocortisone: sensitizes
  Cell density reduction by Hydrocortisone: Enhanced
  Vacuolation by Hydrocortisone: Enhanced
[1]
  vacuolation (in words): did not elicit vacuolation

## CC1(C)O[C@@H]2C[C@H]3[C@@H]4CCC5=CC(=O)C=C[C@]5(C)[C@@]4(F)[C@@H](O)C[C@]3(C)[C@]2(C(=O)CO)O1 [CI041, Triamcinolone acetonide]
[1]; [3]
  minimal effective concentration: 2.5 µM
[1]; [4]
  minimal effective concentration: 0.625 µM

## C[C@]12C=CC(=O)C=C1CC[C@@H]1[C@@H]2C(=O)C[C@@]2(C)[C@H]1CC[C@]2(O)C(=O)CO [CI042, Prednisone]
[1]; [3]
  minimal effective concentration: 2.5 µM
[1]; [4]
  minimal effective concentration: > 10 µM

## CC(=O)[C@@]1(O)CC[C@H]2[C@@H]3C[C@H](C)C4=CC(=O)C=C[C@]4(C)[C@@]3(F)[C@@H](O)C[C@@]21C [CI043, Fluorometholone]
[1]; [3]
  minimal effective concentration: 2.5 µM
[1]; [4]
  minimal effective concentration: 0.625 µM

## C=CC[C@@H]1/C=C(\C)C[C@H](C)C[C@H](OC)[C@H]2O[C@@](O)(C(=O)C(=O)N3CCCC[C@H]3C(=O)O[C@H](/C(C)=C/[C@@H]3CC[C@@H](O)[C@H](OC)C3)[C@H](C)[C@@H](O)CC1=O)[C@H](C)C[C@@H]2OC [CI046, Tacrolimus]
[2]
  sensitization to induction of vacuolation elicited by Hydrocortisone: sensitizes
  Cell density reduction by Hydrocortisone: Enhanced
  Vacuolation by Hydrocortisone: Enhanced
[1]
  vacuolation (in words): did not elicit vacuolation

## C[C@]12C=CC(=O)C=C1CC[C@H]1[C@@H]3C[C@@H](O)[C@](O)(C(=O)CO)[C@@]3(C)C[C@H](O)[C@@]12F [CI047, Triamcinolone]
[1]; [3]
  minimal effective concentration: 2.5 µM
[1]; [4]
  minimal effective concentration: 0.625 µM

## CC(=O)OCC(=O)[C@@]12OC(C)(C)O[C@@H]1C[C@H]1[C@@H]3C[C@H](F)C4=CC(=O)C=C[C@]4(C)[C@@]3(F)[C@@H](O)C[C@@]12C [CI048, Fluocinonide]
[1]; [3]
  minimal effective concentration: 2.5 µM
[1]; [4]
  minimal effective concentration: 0.625 µM

## C[C@]12CCC(=O)C=C1CC[C@@H]1[C@@H]2CC[C@@]2(C)[C@H]1CC[C@]2(O)C(=O)CO [CI049, Cortodoxone]
[1]; [3]
  minimal effective concentration: 10 µM
[1]; [4]
  minimal effective concentration: 5 µM

## CC(=O)OCC(=O)[C@@]1(O)CC[C@H]2[C@@H]3CCC4=CC(=O)CC[C@]4(C)[C@H]3[C@@H](O)C[C@@]21C [HC003, Hydrocortisone 21-acetate]
[1]; [5]
  minimal effective concentration: 2 µM
[1]; [6]
  minimal effective concentration: >10 µM

## CCCC(=O)O[C@]1(C(=O)CO)CC[C@H]2[C@@H]3CCC4=CC(=O)CC[C@]4(C)[C@H]3[C@@H](O)C[C@@]21C [HC004, Hydrocortisone 17-Butyrate]
[1]; [5]
  minimal effective concentration: 10 µM
[1]; [6]
  minimal effective concentration: >10 µM

## CC(=O)OCC(=O)[C@@]1(O)[C@H](C)C[C@H]2[C@@H]3CCC4=CC(=O)C=C[C@]4(C)[C@@]3(F)[C@@H](O)C[C@@]21C [HC005, Dexamethasone 21-acetate]
[1]; [5]
  minimal effective concentration: 10 µM
[1]; [6]
  minimal effective concentration: >10 µM

## CC#C[C@]1(O)CC[C@H]2[C@@H]3CCC4=CC(=O)CCC4=C3[C@@H](c3ccc(N(C)C)cc3)C[C@@]21C [Mifepristone]
[2]; 5 μM of Mifepristone
  CIR effect of HC in presence of antagonist: completely blocked
[1]; high-density cells
  contact inhibition restoration (CIR) activity: failed to elicit

## Cn1c(=O)cc(N2CCC[C@@H](N)C2)n(Cc2ccccc2C#N)c1=O [alogliptin]
[2]
  HC-triggered vacuolation in presence of the compound: failed to inhibit

## CC#CCn1c(N2CCC[C@@H](N)C2)nc2c1c(=O)n(Cc1nc(C)c3ccccc3n1)c(=O)n2C [linagliptin]
[2]
  HC-triggered vacuolation in presence of the compound: failed to inhibit
